In patent publication US11319305B2, “Pyrimidine sulfamide derivative and preparation method and medical application thereof” (SHIJIAZHUANG SAGACITY NEW DRUG DEVELOPMENT CO., LTD., priority 2017, dated 2022):

Assays:
[1] = target: T1, bile salt transport pump (BSEP) (Homo sapiens, UniProt O95342); test: Inhibition test on bile salt transfer pump (BSEP), taurocholic acid uptake in BSEP-Hi5-VT vesicles; type: in vitro ADME
T1 construct: purchased Solvo Biotechnology SB-BSEP-Hi5-VT; host or cells: Hi5 insect cells (read from the product name; own knowledge)
T1 sequence (O95342 whole entry): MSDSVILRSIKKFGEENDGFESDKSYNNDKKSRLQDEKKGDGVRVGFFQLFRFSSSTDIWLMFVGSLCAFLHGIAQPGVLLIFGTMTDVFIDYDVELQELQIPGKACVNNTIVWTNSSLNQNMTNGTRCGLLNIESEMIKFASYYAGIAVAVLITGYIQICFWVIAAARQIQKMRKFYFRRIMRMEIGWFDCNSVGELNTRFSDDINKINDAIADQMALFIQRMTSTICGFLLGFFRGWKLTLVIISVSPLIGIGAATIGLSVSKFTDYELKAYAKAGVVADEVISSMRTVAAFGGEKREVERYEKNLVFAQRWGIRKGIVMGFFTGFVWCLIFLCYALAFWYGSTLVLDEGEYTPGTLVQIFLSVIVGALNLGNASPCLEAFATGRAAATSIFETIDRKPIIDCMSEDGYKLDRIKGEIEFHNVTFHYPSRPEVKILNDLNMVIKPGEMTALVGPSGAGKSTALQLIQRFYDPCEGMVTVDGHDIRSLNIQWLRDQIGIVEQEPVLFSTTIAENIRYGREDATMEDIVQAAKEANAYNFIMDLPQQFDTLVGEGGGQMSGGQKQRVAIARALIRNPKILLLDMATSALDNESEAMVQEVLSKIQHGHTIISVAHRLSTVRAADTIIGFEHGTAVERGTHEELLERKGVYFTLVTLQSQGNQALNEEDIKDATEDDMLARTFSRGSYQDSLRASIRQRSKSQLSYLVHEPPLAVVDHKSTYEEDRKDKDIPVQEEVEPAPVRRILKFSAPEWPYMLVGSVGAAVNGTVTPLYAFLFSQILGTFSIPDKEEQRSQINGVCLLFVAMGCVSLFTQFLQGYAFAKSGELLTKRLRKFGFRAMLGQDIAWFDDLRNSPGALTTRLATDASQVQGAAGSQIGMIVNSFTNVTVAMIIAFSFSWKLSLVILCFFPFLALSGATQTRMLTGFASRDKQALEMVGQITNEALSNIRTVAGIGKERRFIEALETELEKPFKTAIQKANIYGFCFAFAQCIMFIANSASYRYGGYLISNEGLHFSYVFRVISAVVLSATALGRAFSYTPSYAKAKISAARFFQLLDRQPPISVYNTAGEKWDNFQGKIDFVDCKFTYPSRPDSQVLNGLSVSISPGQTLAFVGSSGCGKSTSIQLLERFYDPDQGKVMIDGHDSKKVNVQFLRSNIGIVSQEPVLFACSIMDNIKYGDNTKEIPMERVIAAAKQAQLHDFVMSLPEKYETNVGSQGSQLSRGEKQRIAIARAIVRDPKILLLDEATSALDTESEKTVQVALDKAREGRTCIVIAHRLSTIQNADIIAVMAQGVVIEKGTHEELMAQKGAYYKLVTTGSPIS
Procedure: Prepared with buffer A, 8.16 mM ATP and 4.08 μM taurocholic acid were contained in 12 mL buffer A.
Prepared with buffer A, 8.16 mM AMP, 4.08 μM taurocholic acid 12 mL buffer A were contained in buffer A.
A solution containing BSEP-Hi5-VT 5 μg/μL was prepared with buffer A.
The compound was diluted to 100 mM with DMSO; then serially diluted 3-fold for an 11-point dilution; the minimum concentration was 0.169 μM.
Positive reference Glyburide was diluted to 20 mM with DMSO; then serially diluted 2-fold for an 11-point dilution; the minimum concentration was 19.5
0.3 μL of a solution of the compound in DMSO or a diluted DMSO solution were transferred into corresponding wells of the compound plate using ECHO, respectively.
14.7 μL of ATP buffer was added to the compound and the corresponding wells of zero percent effect (ZPE), respectively.
14.7 μL of AMP buffer was added to the corresponding wells of 100% effect (HPE), respectively.
The plate was shaked for 10 minutes at 25° C.
15 μL of BSEP-H15-VT Vesicle solution was added to all wells, respectively, and the plate was shaked for another 40 minutes at 25° C.
6.5 μL 0.5 M ethylenediaminetetraacetic acid (EDTA) solution was added to all wells immediately, followed by addition of 65 μL of buffer B, and the whole reaction was completed.
7.95 μL of liquid was transferred to the filter plate from the compound plate at the end of the reaction using an instrument.
After placing the liquid receiving plate under the filter plate, the liquid was removed using a centrifuge and the receiving plate liquid was discarded.
9.90 μL of buffer B was added to the filter plate. After placing the liquid receiving plate under the filter plate, the liquid was removed using a centrifuge, and the receiving plate liquid was discarded, and filter plate was washed for three times in total.
The filter plate was dried overnight.
On the next day, 80 μL of methanol/water (80/20, volume ratio) solution was added to the filter plate.
The plate was shaked for 15 minutes after the filter plate was attached to the membrane.
A new liquid receiving plate was placed under the filter plate, and the filter plate was centrifuged for 5 minutes, and all liquids in the filter plate were filtrated into the receiving plate.
15 μL of internal standard solution was added to each wells in the liquid receiving plate, and the plate was sealed with a membrane.
The content of taurocholic acid in the receiving plate was detected using LC/MS/MS.
Several concentrations were tested in each experiments. The data were analyzed using Prism to generate a concentration-response curve, and IC50 values of the compounds were calculated.

[2] = tested on: human liver microsomal cytochrome P450 isozyme (CYP1A2, CYP2C9, CYP2C19, CYP2D6 and CYP3A4); test: Human liver microsomal cytochrome P450 isozyme inhibition assay, summary over the main isozymes; type: in vitro ADME; settings: human liver microsomes
Procedure: (§1) Experimental Embodiment 4: Human Liver Microsomal Cytochrome P450 Isozyme Inhibition Assay The purpose of the assay was to evaluate the inhibitory activity of the samples against human liver microsomal cytochrome P450 isozyme (CYP1A2, CYP2C9, CYP2C19, CYP2D6 and CYP3A4) using the 5-in-1 probe substrate of the CYP isozyme. Mixed human liver microsomes (HLM) were purchased from Corning Inc. (Steuben, N.Y., USA) and stored below −80° C. before use. The test compound working solution which has been diluted into serial concentrations was added to an incubation system containing human liver microsomes, probe substrates and circulating system cofactors, and a control containing solvent without the test compound was used as the enzyme activity control (100%). The concentration of the metabolite produced by the probe substrate in the sample was determined using a liquid chromatography-tandem mass spectrometry (LC-MS/MS) method. Nonlinear regression analysis was performed on the average percent activity versus concentration of subjects using SigmaPlot (V.11). The IC50 value was calculated by a three-parameter or four-parameter inverse-logarithmic equation.

[3] = target: T2, Human Pregnane X Receptor (PXR) (Homo sapiens, UniProt O75469); test: Human pregnane X receptor (PXR) assay, induction of PXR-mediated CYP3A expression in DPX2 cells; type: cell-based
T2 construct: host or cells: DPX2 cells
T2 sequence (O75469 1-434): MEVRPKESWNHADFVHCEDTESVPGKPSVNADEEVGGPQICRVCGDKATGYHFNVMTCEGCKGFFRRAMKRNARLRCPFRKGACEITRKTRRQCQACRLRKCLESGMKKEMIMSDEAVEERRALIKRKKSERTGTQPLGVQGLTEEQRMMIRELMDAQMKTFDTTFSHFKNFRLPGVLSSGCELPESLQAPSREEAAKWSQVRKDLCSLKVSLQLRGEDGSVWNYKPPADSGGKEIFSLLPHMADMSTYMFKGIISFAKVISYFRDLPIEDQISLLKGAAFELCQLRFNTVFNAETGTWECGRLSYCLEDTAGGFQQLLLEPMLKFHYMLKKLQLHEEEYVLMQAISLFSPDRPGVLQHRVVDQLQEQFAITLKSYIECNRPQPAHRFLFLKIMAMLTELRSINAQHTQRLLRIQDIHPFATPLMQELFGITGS
Procedure: Experimental Embodiment 3: Human Pregnane X Receptor (PXR) Assay
The effect of the compounds on the induction of PXR-mediated CYP3A expression was evaluated.
1. DPX2 cells were thawn under sterile conditions.
2. DPX2 cell solution was distributed in 96-well plate (100 μL/well), and the plate was placed in a 5% CO2/37° C. incubator overnight.
3. Quantitative feeding medium was thawn in a 37° C. water bath. Positive control rifampin was thawn at room temperature. A series of test compounds and positive control dilutions were prepared in quantitative feeding medium. The cells were carefully aspirated from each wells without disturbing the cells during aspiration and the medium was discarded. 100 μL of each test compound concentration was transferred to pre-labeled wells. The operation of the positive control group and the blank group were the same. The plate was placed back into the incubator for 24 hours exposure.
(1) 7 μL of Luciferin-IPA was added to […] feeding medium, the mixture was mixed by inverting, and poured into a Luciferin-IPA reagent tank.
(2) The 96-well plate was taken out from the incubator, and the media was carefully aspirated from each wells. 50 μL of the Luciferin-IPA reagent was added to each wells, and the cell plate was placed back into the incubator for 60 minutes.
(3) During incubation, the P450-Glo buffer was poured into the Luciferin detection reagent, and the mixture was mixed by inverting.
(4) The 96-well plate was taken out from the incubator, and 40 μL of solution from each well was transferred into the corresponding white 96-well plate, and the corresponding position of each wells was consistent with the original cell plate. […]
(8) After incubation with Luciferin detection reagent for 20 minutes, a photometer (set 1-5 seconds. Readout Time) was used to measure the luminescence of each wells of the white 96-well plate. […]
(10) After incubating for 60 minutes at 37° C., the original 96-well plate was taken out of the incubator. The reader was set to the fluorescence mode, the excitation wavelength was set to 380-400 nm, the emission wavelength was set to 505 nm, and the fluorescence intensity of each wells was measured.
(11) The cell plate was taken out of the enzyme reader, and 100 μL of ONE-Glo™ detection reagent was added to each wells. […]
(12) The enzyme reader was set to 5 seconds for pre-shaking and 5 seconds for wells reading, and the fluorescence intensity in each hole was measured. […]
The positive control was rifampicin, six concentrations were tested in each experiment. The data was analyzed using Prism to generate a concentration-response curve and the EC50 value of the compound was calculated.

[4] = target: T3, CYP2D6 (Homo sapiens, UniProt P10635); test: Human liver microsomal cytochrome P450 isozyme inhibition assay, CYP2D6; type: in vitro ADME; settings: human liver microsomes
T3 construct: Mixed human liver microsomes (HLM) were purchased from Corning Inc; tissue Corning Inc; host or cells: pooled human liver microsomes
T3 sequence (P10635 whole entry): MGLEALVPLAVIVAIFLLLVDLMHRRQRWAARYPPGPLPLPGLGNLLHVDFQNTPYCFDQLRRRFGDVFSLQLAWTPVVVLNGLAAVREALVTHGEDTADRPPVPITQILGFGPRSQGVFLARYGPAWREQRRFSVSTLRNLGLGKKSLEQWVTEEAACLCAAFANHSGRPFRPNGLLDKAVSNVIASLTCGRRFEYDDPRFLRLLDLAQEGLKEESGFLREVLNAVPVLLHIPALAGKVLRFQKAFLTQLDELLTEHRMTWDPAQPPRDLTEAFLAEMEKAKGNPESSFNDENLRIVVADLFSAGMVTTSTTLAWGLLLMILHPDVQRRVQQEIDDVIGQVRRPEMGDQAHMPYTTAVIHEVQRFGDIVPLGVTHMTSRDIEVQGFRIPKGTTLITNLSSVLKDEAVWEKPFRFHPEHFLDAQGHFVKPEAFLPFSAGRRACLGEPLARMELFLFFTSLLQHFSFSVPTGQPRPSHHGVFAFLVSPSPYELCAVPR
Procedure: as §1

[5] = target: T4, CYP2C9 (Homo sapiens, UniProt P11712); test: Human liver microsomal cytochrome P450 isozyme inhibition assay, CYP2C9; type: in vitro ADME; settings: human liver microsomes
T4 construct: Mixed human liver microsomes (HLM) were purchased from Corning Inc; tissue Corning Inc; host or cells: pooled human liver microsomes
T4 sequence (P11712 whole entry): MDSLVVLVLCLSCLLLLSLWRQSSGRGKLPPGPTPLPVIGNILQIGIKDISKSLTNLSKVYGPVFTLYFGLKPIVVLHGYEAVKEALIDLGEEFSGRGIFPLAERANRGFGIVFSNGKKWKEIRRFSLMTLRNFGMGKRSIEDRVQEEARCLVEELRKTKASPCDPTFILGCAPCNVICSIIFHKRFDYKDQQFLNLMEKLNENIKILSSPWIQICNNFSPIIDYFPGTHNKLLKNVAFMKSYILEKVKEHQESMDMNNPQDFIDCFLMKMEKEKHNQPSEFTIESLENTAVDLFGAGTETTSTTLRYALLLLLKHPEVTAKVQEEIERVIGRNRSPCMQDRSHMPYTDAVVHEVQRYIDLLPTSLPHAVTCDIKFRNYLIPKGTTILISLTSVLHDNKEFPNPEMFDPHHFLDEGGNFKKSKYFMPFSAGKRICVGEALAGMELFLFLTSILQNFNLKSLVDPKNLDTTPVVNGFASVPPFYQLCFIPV
Procedure: as §1

[6] = target: T5, CYP3A4 (Homo sapiens, UniProt P08684); test: Human liver microsomal cytochrome P450 isozyme inhibition assay, CYP3A4; type: in vitro ADME; settings: human liver microsomes
T5 construct: Mixed human liver microsomes (HLM) were purchased from Corning Inc; tissue Corning Inc; host or cells: pooled human liver microsomes
T5 sequence (P08684 whole entry): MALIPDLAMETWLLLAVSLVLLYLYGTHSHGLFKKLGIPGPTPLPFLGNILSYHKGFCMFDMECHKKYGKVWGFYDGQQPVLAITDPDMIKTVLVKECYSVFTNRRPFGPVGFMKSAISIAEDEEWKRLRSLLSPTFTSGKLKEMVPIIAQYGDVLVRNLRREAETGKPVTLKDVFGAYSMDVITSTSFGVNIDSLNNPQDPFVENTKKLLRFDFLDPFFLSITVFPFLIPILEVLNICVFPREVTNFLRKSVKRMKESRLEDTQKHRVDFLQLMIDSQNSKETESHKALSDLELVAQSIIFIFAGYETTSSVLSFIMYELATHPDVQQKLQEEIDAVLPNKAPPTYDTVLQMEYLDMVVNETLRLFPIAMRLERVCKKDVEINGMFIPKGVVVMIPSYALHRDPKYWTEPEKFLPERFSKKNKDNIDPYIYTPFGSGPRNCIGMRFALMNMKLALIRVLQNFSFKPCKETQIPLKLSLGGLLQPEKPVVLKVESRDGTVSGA
Procedure: as §1

[7] = target: T6, CYP1A2 (Homo sapiens, UniProt P05177); test: Human liver microsomal cytochrome P450 isozyme inhibition assay, CYP1A2; type: in vitro ADME; settings: human liver microsomes
T6 construct: Mixed human liver microsomes (HLM) were purchased from Corning Inc; tissue Corning Inc; host or cells: pooled human liver microsomes
T6 sequence (P05177 1-516): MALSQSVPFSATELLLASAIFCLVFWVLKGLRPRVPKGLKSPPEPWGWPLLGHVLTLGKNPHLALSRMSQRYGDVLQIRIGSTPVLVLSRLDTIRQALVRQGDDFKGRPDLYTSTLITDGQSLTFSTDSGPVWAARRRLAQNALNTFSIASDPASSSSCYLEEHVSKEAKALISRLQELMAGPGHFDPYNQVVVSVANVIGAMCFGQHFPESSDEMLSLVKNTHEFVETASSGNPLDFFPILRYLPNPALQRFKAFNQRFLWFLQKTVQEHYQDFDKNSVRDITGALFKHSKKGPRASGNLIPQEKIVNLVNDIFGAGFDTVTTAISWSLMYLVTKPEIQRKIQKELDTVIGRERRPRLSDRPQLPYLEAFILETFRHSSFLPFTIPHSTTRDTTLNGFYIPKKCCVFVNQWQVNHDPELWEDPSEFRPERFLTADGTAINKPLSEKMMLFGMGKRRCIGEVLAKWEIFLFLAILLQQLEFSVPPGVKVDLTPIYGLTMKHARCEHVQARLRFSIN
Procedure: as §1

[8] = target: T7, CYP2C19 (Homo sapiens, UniProt P33261); test: Human liver microsomal cytochrome P450 isozyme inhibition assay, CYP2C19; type: in vitro ADME; settings: human liver microsomes
T7 construct: Mixed human liver microsomes (HLM) were purchased from Corning Inc; tissue Corning Inc; host or cells: pooled human liver microsomes
T7 sequence (P33261 whole entry): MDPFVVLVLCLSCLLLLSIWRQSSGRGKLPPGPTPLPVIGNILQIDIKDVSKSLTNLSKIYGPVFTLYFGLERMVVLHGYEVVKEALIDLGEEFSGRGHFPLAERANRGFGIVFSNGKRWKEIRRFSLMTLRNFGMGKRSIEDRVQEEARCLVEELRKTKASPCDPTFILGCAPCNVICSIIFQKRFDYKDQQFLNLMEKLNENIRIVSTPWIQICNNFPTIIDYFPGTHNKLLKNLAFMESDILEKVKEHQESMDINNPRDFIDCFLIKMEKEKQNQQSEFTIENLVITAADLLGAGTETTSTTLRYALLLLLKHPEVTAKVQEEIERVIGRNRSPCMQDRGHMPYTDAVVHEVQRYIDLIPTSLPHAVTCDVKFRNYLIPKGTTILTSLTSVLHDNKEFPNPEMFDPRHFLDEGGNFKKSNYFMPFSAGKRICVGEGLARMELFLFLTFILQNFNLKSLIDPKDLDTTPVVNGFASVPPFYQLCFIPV
Procedure: as §1

## CCCNS(=O)(=O)Nc1ncnc(OCCOc2ncc(Br)cn2)c1-c1ccc(Br)cc1 [macitentan, reference compound]
[1]
  inhibitory effect on the bile salt transport pump (BSEP) (in words): strong
[1]; substrate taurocholic acid, read-out: IC50, inhibitory effect on the bile salt transport pump (BSEP)
  IC50: 0.281 µM
[2]
  inhibitory effects on four main isozymes of CYP (in words): weak
[3]
  induction effect on PXR-mediated CYP3A expression (in words): relatively strong induction effect
[3]; DPX2 cells, 24 hours exposure, ± is calculation error of simulation curve, read-out: EC50, induction effect on PXR-mediated CYP3A expression
  EC50: 6.34 ± 0.17 µM
[4]
  IC50: > 50 µM
[5]
  IC50: 7.5 µM
  inhibitory effects on the isozymes CYP2C9 (in words): moderate
[6]
  IC50: 23 µM
[7]
  IC50: 37 µM
[8]
  IC50: 31 µM
